Measurements from ChEMBL document CHEMBL1201862, “PubChem BioAssay data set” (2004).
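Grown in 96-well plates, cells were treated for 48 hours with each compound at five concentrations. Insufficient inhibition: endpoint recorded as highest concentration tested. GI50 marks 50% less growth.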 Calls of active or inactive are those of the source. Cut-off read from the data, not from the text of the source: active = GI50 up to about 1.1 µM and inactive = higher.

Key:
Test in all cases: inhibition of tumour cell growth, NCI panel, 48 h
[1] = test system: A498
[2] = test system: BT-549
[3] = test system: CAKI-1
[4] = test system: CCRF-CEM
[5] = test system: HCT-116
[6] = test system: HCT-15
[7] = test system: Malme-3M
[8] = test system: NCI-H23
[9] = test system: NCI-H522
[10] = test system: NCI/ADR-RES
[11] = test system: OVCAR-4
[12] = test system: OVCAR-8
[13] = test system: SF-539
[14] = test system: SK-MEL-2
[15] = test system: SK-MEL-5
[16] = test system: SK-OV-3
[17] = test system: SNB-75
[18] = test system: T47D
[19] = test system: U-251
[20] = test system: HOP-92

Row | SMILES | GI50 [1] | GI50 [2] | GI50 [3] | GI50 [4] | GI50 [5] | GI50 [6] | GI50 [7] | GI50 [8] | GI50 [9] | GI50 [10] | GI50 [11] | GI50 [12] | GI50 [13] | GI50 [14] | GI50 [15] | GI50 [16] | GI50 [17] | GI50 [18] | GI50 [19] | GI50 [20]
1 | C[C@]12CC[C@@H]3c4ccc(O)cc4CC[C@H]3[C@@H]1C/C(=C\c1ccc([N+](=O)[O-])cc1)C2=O | > 100 µM (inactive) | > 100 µM (inactive) | > 100 µM (inactive) | 53.7 µM (inactive) | 37.7 µM (inactive) | 67 µM | 67.6 µM (inactive) | 78.9 µM (inactive) | 24.1 µM (inactive) | 59.2 µM (inactive) | > 100 µM (inactive) | 34.9 µM (inactive) | 29.9 µM (inactive) | 44.6 µM (inactive) | 41.5 µM (inactive) | > 100 µM (inactive) | 50.7 µM (inactive) | 40 µM (inactive) | 40.1 µM (inactive) | 
2 | COC(=O)N1C2C(C[C@@]1(C)C(=O)OC)c1ccccc1N2S(=O)(=O)c1ccccc1 (stereo partly specified) |  | > 100 µM (inactive) | > 100 µM (inactive) | > 100 µM (inactive) | > 100 µM (inactive) |  | > 100 µM (inactive) | > 100 µM (inactive) | > 100 µM (inactive) | > 100 µM (inactive) | > 100 µM (inactive) | > 100 µM (inactive) |  | > 100 µM (inactive) | > 100 µM (inactive) | > 100 µM (inactive) | > 100 µM (inactive) | > 100 µM (inactive) |  | > 100 µM (inactive)
3 | CN(C)c1ccc(/C=C2\N=C(c3ccccc3)N(c3ccc4c(c3)Sc3cc(N5C(=O)/C(=C/c6ccc(N(C)C)cc6)N=C5c5ccccc5)ccc3N4)C2=O)cc1 | 16.8 µM (inactive) | 22.9 µM (inactive) | 17.9 µM (inactive) | 3.73 µM (inactive) | 26.3 µM (inactive) | 49.2 µM |  |  |  | 28.4 µM (inactive) | 22.6 µM (inactive) | 18.1 µM (inactive) | 17.5 µM (inactive) | 18.6 µM (inactive) | 17.9 µM (inactive) | 13.6 µM (inactive) | 11.9 µM (inactive) | 19.6 µM (inactive) | 15.6 µM (inactive) | 18.3 µM (inactive)
4 | O=C(CNc1ccccc1[N+](=O)[O-])Nn1c(-c2ccccc2)nc2ccccc2c1=O | 26.2 µM (inactive) | 17.9 µM (inactive) |  | 15.8 µM (inactive) | 16.1 µM (inactive) | 19.9 µM | 23.9 µM (inactive) | 25.8 µM (inactive) | > 10 µM (inactive) | 25.7 µM (inactive) | 17 µM (inactive) | 33.8 µM (inactive) | 19.7 µM (inactive) |  | 10.4 µM (inactive) | 30.7 µM (inactive) | 11.3 µM (inactive) | 17.3 µM (inactive) | 19.2 µM (inactive) | 12.4 µM (inactive)
5 | CCCCCCCCCCCCCCCC(=O)Nc1ccn(C2CC(OP(=O)(O)OCC3OC(n4cc(F)c(=O)[nH]c4=O)CC3OC(C)=O)C(CO)O2)c(=O)n1 (stereo unspecified) | > 35 µM (inactive) | 3.18 µM (inactive) | 1.56 µM (inactive) | 3.18 µM (inactive) | 3.84 µM (inactive) | 14.7 µM |  | 3.86 µM (inactive) | 9.04 µM (inactive) | 11.4 µM (inactive) | 44.7 µM (inactive) | 3.78 µM (inactive) | 0.07 µM (active) | > 45.1 µM (inactive) | 11.5 µM (inactive) | > 21.2 µM (inactive) | 13.7 µM (inactive) | 20.8 µM (inactive) | 15.7 µM (inactive) | 
6 | C=CC(Br)(CBr)CCC(Br)C(C)(C)Cl (stereo unspecified) | 5.16 µM (inactive) | 6.52 µM (inactive) |  | 2.22 µM (inactive) | 1.64 µM (inactive) | 2.58 µM | 6.27 µM (inactive) | 6.31 µM (inactive) | 1.38 µM (inactive) | 3.92 µM (inactive) | 4.08 µM (inactive) | 4.42 µM (inactive) | 1.99 µM (inactive) | 8.73 µM (inactive) | 7.76 µM (inactive) | 16.3 µM (inactive) | 2.71 µM (inactive) | 1.67 µM (inactive) | 1.53 µM (inactive) | 2.04 µM (inactive)
7 | CC(=O)/C=C1\Nc2sc(C)c(C)c2C(=O)S1 | > 100 µM (inactive) | 53 µM (inactive) | 65.3 µM (inactive) | 21.7 µM (inactive) | 31.6 µM (inactive) | 28.9 µM | 30.6 µM (inactive) | 35.5 µM (inactive) |  | 37.1 µM (inactive) | 42.2 µM (inactive) | 35.6 µM (inactive) | 24.5 µM (inactive) | 24.2 µM (inactive) | 41 µM (inactive) | > 100 µM (inactive) | 24 µM (inactive) | 47.2 µM (inactive) | 50.2 µM (inactive) | > 100 µM (inactive)
8 | O=C(COc1ccc(Cl)cc1Cl)N/N=C/C=C/c1ccc([N+](=O)[O-])o1 | 11.5 µM (inactive) | 12.1 µM (inactive) | > 100 µM (inactive) | 3.13 µM (inactive) | 1.87 µM (inactive) | 3.37 µM | 2.8 µM (inactive) | 3.18 µM (inactive) | 1.04 µM (active) | 11.9 µM (inactive) | 4.35 µM (inactive) | 3.44 µM (inactive) | 7.31 µM (inactive) | 3.27 µM (inactive) | 1.96 µM (inactive) | 14.6 µM (inactive) | 14.3 µM (inactive) | > 100 µM (inactive) | 15.7 µM (inactive) | 
9 | COc1ccc2c(c1)CC[C@@H]1[C@@H]2CC[C@]2(C)C(=O)/C(=C/c3ccc(N(C)C)cc3)C[C@@H]12 | 30.3 µM (inactive) | 29.1 µM (inactive) | 28.1 µM (inactive) |  | 44 µM (inactive) | > 100 µM | 83.2 µM (inactive) | 33 µM (inactive) |  | 33 µM (inactive) | 37.2 µM (inactive) |  | > 100 µM (inactive) | 24.9 µM (inactive) | 73.1 µM (inactive) | 53.7 µM (inactive) | 24.2 µM (inactive) | 44.1 µM (inactive) | 46.1 µM (inactive) | 24.2 µM (inactive)
10 | COC(=O)[C@H](Cc1c[nH]c2ccccc12)NP(=O)(O)OCC1C=CC(n2cc(C)c(=O)[nH]c2=O)O1 (stereo partly specified) | > 100 µM (inactive) | > 100 µM (inactive) | > 100 µM (inactive) | > 100 µM (inactive) | > 100 µM (inactive) | > 100 µM |  | > 100 µM (inactive) |  | > 100 µM (inactive) | > 100 µM (inactive) | > 100 µM (inactive) |  | > 100 µM (inactive) | > 100 µM (inactive) |  | > 100 µM (inactive) | > 100 µM (inactive) | > 100 µM (inactive) | > 100 µM (inactive)
11 | O=C(c1ccccc1)c1ccc2[nH]c(-c3c(Cl)c(Cl)c(Cl)c(Cl)c3C(=O)N/N=C/c3cccc(Oc4ccccc4)c3)nc2c1 |  | 93.8 µM (inactive) | > 100 µM (inactive) | 39.6 µM (inactive) | 76.6 µM (inactive) | 45.4 µM | > 100 µM (inactive) | 74.1 µM (inactive) | 45 µM (inactive) | 95.1 µM (inactive) | 99.3 µM (inactive) | 75.2 µM (inactive) | > 100 µM (inactive) | 46.2 µM (inactive) | 90.6 µM (inactive) | > 100 µM (inactive) | 60.8 µM (inactive) | 36.1 µM (inactive) | 54.7 µM (inactive) | 55.7 µM (inactive)
12 | COc1ccc2oc(=N)c(C(N)=S)cc2c1 |  | 18.5 µM (inactive) | 37.8 µM (inactive) | 20.5 µM (inactive) | 17.4 µM (inactive) | 17.5 µM | 14.1 µM (inactive) |  | 17.5 µM (inactive) | 16.8 µM (inactive) | 31.9 µM (inactive) | 18.2 µM (inactive) | 22.1 µM (inactive) | 18.4 µM (inactive) | 13.6 µM (inactive) | 33.2 µM (inactive) | 24.9 µM (inactive) | 23.7 µM (inactive) | 29 µM (inactive) | 24 µM (inactive)
13 | COC(=O)[C@H](Cc1c[nH]c2ccccc12)NP(=O)(OCCC#N)OCC1OC(n2cc(C)c(=O)[nH]c2=O)CC1N=[N+]=[N-] (stereo partly specified) |  | > 100 µM (inactive) | > 100 µM (inactive) | > 100 µM (inactive) | > 100 µM (inactive) | > 100 µM | > 100 µM (inactive) | > 100 µM (inactive) | > 100 µM (inactive) | > 100 µM (inactive) | > 100 µM (inactive) | > 100 µM (inactive) |  | > 100 µM (inactive) | > 100 µM (inactive) | > 100 µM (inactive) | > 100 µM (inactive) | > 100 µM (inactive) | > 100 µM (inactive) | > 100 µM (inactive)
14 | O=C(O)c1cc(O)c2c(c1)Cc1cccc(O)c1C2=O | 26.9 µM (inactive) | 30.5 µM (inactive) |  | 29.4 µM (inactive) | 23.9 µM (inactive) | 17.2 µM | 19.7 µM (inactive) | 28.1 µM (inactive) |  | 24.9 µM (inactive) | 38 µM (inactive) | 21.3 µM (inactive) |  |  | 21.1 µM (inactive) | 30.5 µM (inactive) | 14.1 µM (inactive) | 38.6 µM (inactive) | 17.6 µM (inactive) | 17.2 µM (inactive)
15 | COc1ccc(OC)c(Cc2cnc3nc(N)nc(N)c3c2C)c1 [PIRITREXIM ISETHIONATE] |  | 13.4 µM (inactive) | 0.0456 µM (active) | < 0.0198 µM (active) | < 0.0112 µM (active) | 0.0149 µM |  | 0.0617 µM (active) | 0.204 µM (active) | 0.989 µM (active) | 13.2 µM (inactive) | < 0.0234 µM (active) | 0.291 µM (active) | 0.986 µM (active) | 0.0955 µM (active) | 11.3 µM (inactive) | 2.1 µM (inactive) | 11.1 µM (inactive) |  | 0.752 µM (active)
